Numbered stars: 1 amine (or outer) side, 2 acyl side, 3 side chain; on linkers, the order of the positions; unused ones are H or OH. Square brackets hold non-standard residues; d marks the D form. Side chains are listed from the residue outwards. Peptide text beside a SMILES is read from it. * marks the point of attachment. Isobutyryl(2-(3-CN-5-F-Ph)) = CC(C)(C(=O)*)c1cc(F)cc(C#N)c1; C20 diacid = O=C(O)CCCCCCCCCCCCCCCCCCC(=O)*; γGlu = O=C(O)[C@H](CCC(=O)[*:2])N[*:1]; AEEA = NCCOCCOCC(=O)O; Aib = CC(C)(N)C(=O)O; βAla = NCCC(=O)O
Experiment: Phase 1 SAD Cohorts 1-5: safety and tolerability (adverse events)
Format: in vivo, human
Details: for AE: Abdominal bloating / AE: Abdominal cramp / AE: Abdominal cramp with loose bowel / AE: Abdominal pain / AE: Abnormal LFTs / AE: Constipation / AE: Diarrhea / AE: Dyspepsia / AE: Dysphasia / AE: Early satiety / AE: Emesis / AE: Exacerbated GERD / AE: Fatigue / AE: Headache / AE: Indigestion / AE: Lethargy / AE: Loose bowel motion / AE: Loose stools / AE: Loss of Appetite / AE: Microscopic hematuria / AE: Nausea / AE: Reduced appetite / AE: Reduced bowel motion / AE: Reflux / AE: Throat discomfort / AE: Vomiting / Life-threatening TEAE / Moderate TEAEs / Related TEAEs / Serious TEAEs / Severe TEAEs / TEAE leading to death / TEAEs: N = 8, blinded
Excerpt: This Example outlines the protocol for a Phase 1 randomized, double-blind, placebo-controlled study to evaluate the safety, tolerability, pharmacokinetics, and pharmacodynamics of CT-388 in otherwise healthy overweight and obese adult participants and in obese patients with type 2 diabetes mellitus.
The primary objective of this study is to determine the safety and tolerability of CT-388 in otherwise healthy overweight and obese adult participants when administered as a single dose of 0.5, 2.0, 5.0, 6.0, or 7.5 mg.
Safety and tolerability will be assessed by monitoring adverse events (AE) including local injection-site reactions, measuring vital signs and ECGs, and performing clinical laboratory blood and urine analyses.
• Cohort 1: One dose containing 0.5 mg of CT-388 or matched placebo administered subcutaneously in the abdomen • Cohort 2: One dose containing 2.0 mg of CT-388 or matched placebo administered subcutaneously in the abdomen • Cohort 3: One dose containing 5.0 mg of CT-388 or matched placebo administered subcutaneously in the abdomen • Cohort 4: One dose containing 7.5 mg of CT-388 or matched placebo administered subcutaneously in the abdomen • Cohort 5: One dose containing 6.0 mg of CT-388 or matched placebo administered subcutaneously in the abdomen
A Phase 1, randomized, placebo-controlled, double-blind study was conducted where single ascending doses (SAD; n=40; 0.5-7.5 mg) and multiple ascending doses (MAD; n=24; 5-12 mg via titration in 3 cohorts) were administered as described in Example 1 to overweight/obese adults.

[1] = Cohort 1, 0.5 mg/Placebo single SC dose
[2] = Cohort 2, 2 mg/Placebo single SC dose
[3] = Cohort 3, 5 mg/Placebo single SC dose
[4] = Cohort 4, 7.5 mg/Placebo single SC dose
[5] = Cohort 5, 6 mg/Placebo single SC dose

## CC[C@H](C)[C@H](NC(=O)[C@H](CC(C)C)NC(=O)[C@H](Cc1c[nH]c2ccccc12)NC(=O)[C@H](CCC(N)=O)NC(=O)[C@@H](NC(=O)[C@H](Cc1ccccc1)NC(=O)[C@H](C)NC(=O)[C@H](CCCCNC(=O)COCCOCCNC(=O)COCCOCCNC(=O)CC[C@H](NC(=O)CCCCCCCCCCCCCCCCCCC(=O)O)C(=O)O)NC(=O)[C@H](CCC(N)=O)NC(=O)[C@H](C)NC(=O)[C@@H](NC(=O)[C@H](CCCCN)NC(=O)[C@H](CC(=O)O)NC(=O)[C@H](CC(C)C)NC(=O)C(C)(C)NC(=O)[C@@H](NC(=O)[C@H](CO)NC(=O)[C@H](Cc1ccc(O)cc1)NC(=O)[C@H](CC(=O)O)NC(=O)[C@H](CO)NC(=O)[C@@H](NC(=O)[C@H](Cc1ccccc1)NC(=O)[C@@H](NC(=O)CNC(=O)[C@H](CCC(=O)O)NC(=O)CCNC(=O)C(C)(C)c1cc(F)cc(C#N)c1)[C@@H](C)O)[C@@H](C)O)[C@@H](C)CC)[C@@H](C)CC)C(C)C)C(=O)N[C@@H](C)C(=O)NCC(=O)NCC(=O)N1CCC[C@H]1C(=O)N[C@@H](CO)C(=O)N[C@@H](CO)C(=O)NCC(=O)N[C@@H](C)C(=O)N1CCC[C@H]1C(=O)N1CCC[C@H]1C(=O)N1CCC[C@H]1C(=O)N[C@@H](CO)C(N)=O [CT-388] ({Isobutyryl(2-(3-CN-5-F-Ph))-βAla}-EGTFTSDYSI[Aib]LDKIAQK([AEEA-AEEA-γGlu-C20 diacid])AFVQWLIAGGPSSGAPPPS-NH2)
[1]
  AE: Abdominal bloating: 0
  AE: Abdominal cramp: 0
  AE: Abdominal cramp with loose bowel: 0
  AE: Abdominal pain: 0
  AE: Abnormal LFTs: 0
  AE: Constipation: 0
  AE: Diarrhea: 0
  AE: Dyspepsia: 0
  AE: Dysphasia: 0
  AE: Early satiety: 0
  AE: Emesis: 0
  AE: Exacerbated GERD: 0
  AE: Fatigue: 0
  AE: Headache: 0
  AE: Indigestion: 0
  AE: Lethargy: 0
  AE: Loose bowel motion: 0
  AE: Loose stools: 0
  AE: Loss of Appetite: 0
  AE: Microscopic hematuria: 0
  AE: Nausea: 0
  AE: Reduced appetite: 0
  AE: Reduced bowel motion: 0
  AE: Reflux: 0
  AE: Throat discomfort: 0
  AE: Vomiting: 0
  Life-threatening TEAE: 0
  Moderate TEAEs: 0
  Related TEAEs: 0
  Serious TEAEs: 0
  Severe TEAEs: 0
  TEAE leading to death: 0
  TEAEs: 8
[2]
  AE: Abdominal bloating: 0
  AE: Abdominal cramp: 0
  AE: Abdominal cramp with loose bowel: 2 (25.0%)
  AE: Abdominal pain: 0
  AE: Abnormal LFTs: 0
  AE: Constipation: 2 (25.0%)
  AE: Diarrhea: 0
  AE: Dyspepsia: 0
  AE: Dysphasia: 0
  AE: Early satiety: 1 (12.5%)
  AE: Emesis: 0
  AE: Exacerbated GERD: 0
  AE: Fatigue: 2 (25.0%)
  AE: Headache: 1 (12.5%)
  AE: Indigestion: 0
  AE: Lethargy: 1 (12.5%)
  AE: Loose bowel motion: 0
  AE: Loose stools: 0
  AE: Loss of Appetite: 2 (25.0%)
  AE: Microscopic hematuria: 0
  AE: Nausea: 0
  AE: Reduced appetite: 0
  AE: Reduced bowel motion: 0
  AE: Reflux: 0
  AE: Throat discomfort: 0
  AE: Vomiting: 0
  Life-threatening TEAE: 0
  Moderate TEAEs: 1
  Related TEAEs: 6
  Serious TEAEs: 0
  Severe TEAEs: 0
  TEAE leading to death: 0
  TEAEs: 8
[3]
  AE: Abdominal bloating: 0
  AE: Abdominal cramp: 0
  AE: Abdominal cramp with loose bowel: 0
  AE: Abdominal pain: 0
  AE: Abnormal LFTs: 0
  AE: Constipation: 0
  AE: Diarrhea: 0
  AE: Dyspepsia: 1 (12.5%)
  AE: Dysphasia: 1 (12.5%)
  AE: Early satiety: 0
  AE: Emesis: 2 (25.0%)
  AE: Exacerbated GERD: 0
  AE: Fatigue: 0
  AE: Headache: 0
  AE: Indigestion: 1 (12.5%)
  AE: Lethargy: 0
  AE: Loose bowel motion: 0
  AE: Loose stools: 0
  AE: Loss of Appetite: 1 (12.5%)
  AE: Microscopic hematuria: 1 (12.5%)
  AE: Nausea: 0
  AE: Reduced appetite: 0
  AE: Reduced bowel motion: 0
  AE: Reflux: 0
  AE: Throat discomfort: 0
  AE: Vomiting: 0
  Life-threatening TEAE: 0
  Moderate TEAEs: 0
  Related TEAEs: 4
  Serious TEAEs: 0
  Severe TEAEs: 0
  TEAE leading to death: 0
  TEAEs: 6
[4]
  AE: Abdominal bloating: 1 (12.5%)
  AE: Abdominal cramp: 1 (12.5%)
  AE: Abdominal cramp with loose bowel: 0
  AE: Abdominal pain: 0
  AE: Abnormal LFTs: 1 (12.5%)
  AE: Constipation: 0
  AE: Diarrhea: 2 (25.0%)
  AE: Dyspepsia: 0
  AE: Dysphasia: 0
  AE: Early satiety: 0
  AE: Emesis: 0
  AE: Exacerbated GERD: 1 (12.5%)
  AE: Fatigue: 0
  AE: Headache: 2 (25.0%)
  AE: Indigestion: 0
  AE: Lethargy: 0
  AE: Loose bowel motion: 0
  AE: Loose stools: 1 (12.5%)
  AE: Loss of Appetite: 1 (12.5%)
  AE: Microscopic hematuria: 0
  AE: Nausea: 6 (75.0%)
  AE: Reduced appetite: 2 (25.0%)
  AE: Reduced bowel motion: 1 (12.5%)
  AE: Reflux: 2 (25.0%)
  AE: Throat discomfort: 1 (12.5%)
  AE: Vomiting: 3 (37.5%)
  Life-threatening TEAE: 0
  Moderate TEAEs: 5
  Related TEAEs: 7
  Serious TEAEs: 1
  Severe TEAEs: 1
  TEAE leading to death: 0
  TEAEs: 8
[5]
  AE: Abdominal bloating: 0
  AE: Abdominal cramp: 0
  AE: Abdominal cramp with loose bowel: 0
  AE: Abdominal pain: 1 (12.5%)
  AE: Abnormal LFTs: 0
  AE: Constipation: 1 (12.5%)
  AE: Diarrhea: 0
  AE: Dyspepsia: 0
  AE: Dysphasia: 0
  AE: Early satiety: 0
  AE: Emesis: 0
  AE: Exacerbated GERD: 0
  AE: Fatigue: 0
  AE: Headache: 1 (12.5%)
  AE: Indigestion: 0
  AE: Lethargy: 0
  AE: Loose bowel motion: 1 (12.5%)
  AE: Loose stools: 0
  AE: Loss of Appetite: 1 (12.5%)
  AE: Microscopic hematuria: 0
  AE: Nausea: 2 (25.0%)
  AE: Reduced appetite: 1 (12.5%)
  AE: Reduced bowel motion: 0
  AE: Reflux: 0
  AE: Throat discomfort: 0
  AE: Vomiting: 2 (25.0%)
  Life-threatening TEAE: 0
  Moderate TEAEs: 2
  Related TEAEs: 4
  Serious TEAEs: 1
  Severe TEAEs: 1
  TEAE leading to death: 0
  TEAEs: 6
SAD Cohorts 1-5, single SC dose 0.5-7.5 mg, preliminary and blinded data
  safety and tolerability: generally well-tolerated

Source: patent publication US20240390464A1, “Treatment of Adults With Overweight or Obesity With or Without Weight-Related Comorbidities” (Carmot Therapeutics Inc., priority 2023, published 2024)
